Assay results reported in paper PMC5727165, “A switch in nucleotide affinity governs activation of the Src and Tec family kinases” (Scientific Reports, 2017).
Where a chain is given by its changes, count along the chain named. Where two headings read alike, the source gives them in different places. Each block holds one molecule with its values, some of them ahead of it.

What was measured:
[1] = target: T1, Src^32K (Mus musculus, UniProt P05480); test: Fluorescence anisotropy binding of Mant-labelled nucleotides; details: direct Mant-nucleotide binding
T1 construct: mouse Src^85-535 (Src^32K); GST (cleaved yes); made in house; host or cells: baculovirus-infected Sf9 insect cells, co-expressed with human Csk
Text: To characterise the nucleotide binding of Itk and Src, we purified recombinant wild type and mutant constructs of Itk and Src containing their respective SH3, SH2, and kinase domains (from here on referred to as Itk^32K, Src^32K, and Src^32KΔC, Fig. 1a). We confirmed the mass and homogeneity of isolated species by high-resolution anion exchange chromatography, intact mass spectrometry, and Western blotting with phospho-specific antibodies (Supplementary Figs 1–3). We performed fluorescence anisotropy measurements using Mant-labelled nucleotides. […] To avoid autophosphorylation during the course of the titration, we used the non-hydrolysable ATP analogue AMPPNP. […] Src^32K bound ADP approximately 6-fold more tightly than AMPPNP (Supplementary Fig. 4d).
Human Itk^171–620 (Itk^32K), mouse Src^85-535 (Src^32K), and mouse Src^85-523 (Src^32KΔC) as well as their respective point mutants were expressed as GST fusions in baculovirus-infected Sf9 insect cells. For the generation of Tyr527-phosphorylated Src^85-535, the protein was co-expressed with human Csk using pFastBac Dual (Invitrogen). Proteins were purified by sequential glutathione-sepharose affinity chromatography, TEV cleavage, high-resolution anion exchange, and size exclusion chromatography in a final buffer of 50 mM Tris, pH 7.5, 200 mM NaCl, 1 mM TCEP, 1% (v/v) glycerol.
(§1) The binding constants for ADP and AMPPNP were determined for Src and Itk proteins by fluorescence anisotropy, using 2′/3′-Mant-labelled nucleotides (Jena Bioscience). Increasing concentrations of Itk^32K, Itk^L351A or Src^32K were incubated with 40 μM Mant-nucleotide in 30 mM Tris pH 7.5, 200 mM NaCl, 5 mM MgCl2, and 1 mM TCEP. Measurements were made with a Perkin Elmer LS50B fluorimeter (λex = 355 nm, λem = 447 nm) at 20 °C. For each data point 50–60 measurements, each with an integration time of 1 s, were averaged. For competition nucleotide displacement assays, 40–80 μM of protein was incubated with 40 μM Mant-ADP until equilibrium was established. Unlabelled nucleotide was titrated into the reaction and fluorescence anisotropy monitored. The equilibrium inhibition constant for the unlabelled nucleotide was calculated from the fitted curve.

[2] = target: T2, Src^32KΔC (Mus musculus, UniProt P05480); test: Competition nucleotide displacement assay (Mant-ADP, fluorescence anisotropy); format: binding; details: 40 μM Src^32KΔC, 40 μM Mant-ADP; read-out: Ki (equilibrium inhibition constant)
T2 construct: mouse Src^85-523 (Src^32KΔC); GST (cleaved yes); made in house; host or cells: baculovirus-infected Sf9 insect cells
Procedure: Figure 2 Itk adopts a Src-like autoinhibited conformation. (a) Competition nucleotide displacement assay for Src^32KΔC. 40 μM Src^32KΔC was incubated with 40 μM Mant-ADP until equilibrium was established. Unlabelled ADP or AMPPNP was titrated into the reaction and fluorescence anisotropy monitored. […] (b) Small angle X-ray scattering curves for Itk^32K (cyan), Src^32K (magenta), Src^32KΔC (blue), and Src^32K R175L (green). […] (d) Table of physical parameters obtained from the scattering curves for Itk^32K, Src^32K, Src^32KΔC, and Src^32K R175L. (e)Ab initio model of Itk^32K and docking of autoinhibited Src (2SRC.pdb) into the molecular envelope. Two orientations of the envelope are shown for clarity. (f) Ab initio molecular envelope for Src^32KΔC illustrates the fit of the crystal structure of autoinhibited Src. TEXT PRINTED IN THE PICTURE: (a) ADP: Src^32KΔC Ki (mM): 0.03 ± 0.008 | (a) ANP: Src^32KΔC Ki (mM): 0.69 ± 0.140
as §1

[3] = target: T3, Itk^32K (Homo sapiens, UniProt Q08881); test: as above; format: binding
T3 construct: Human Itk^171–620 (Itk^32K); GST (cleaved yes); made in house; host or cells: baculovirus-infected Sf9 insect cells
T3 sequence (Q08881 171-620): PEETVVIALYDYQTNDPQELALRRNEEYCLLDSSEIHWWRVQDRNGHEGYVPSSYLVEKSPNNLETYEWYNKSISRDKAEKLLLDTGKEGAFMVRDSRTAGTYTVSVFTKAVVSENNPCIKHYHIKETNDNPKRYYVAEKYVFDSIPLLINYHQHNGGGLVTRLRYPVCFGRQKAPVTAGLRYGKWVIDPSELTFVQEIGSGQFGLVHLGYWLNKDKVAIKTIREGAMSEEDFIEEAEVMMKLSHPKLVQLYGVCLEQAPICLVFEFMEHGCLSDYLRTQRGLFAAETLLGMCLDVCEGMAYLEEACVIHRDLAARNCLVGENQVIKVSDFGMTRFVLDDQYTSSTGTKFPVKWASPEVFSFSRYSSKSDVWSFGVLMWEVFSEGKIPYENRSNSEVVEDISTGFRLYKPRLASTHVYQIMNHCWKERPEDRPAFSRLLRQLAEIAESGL
Procedure: Figure 1 Autoinhibited Itk and Src kinases preferentially bind ADP. (a) Schematic of constructs evaluated in this study. Itk^32K, Src^32K, and Src^32KΔC contain the conserved module of SH3, SH2, and kinase (^32K) domains. Src^32K was truncated by […] to remove its C-terminal tail (inclusive of the Y527 phosphorylation site), generating a construct we refer to as Src^32KΔC (ΔC-tail). (b) Competition nucleotide displacement assay for Itk^32K. 40 μM Itk^32K was incubated with 40 μM Mant-ADP until equilibrium was established. Unlabelled ADP or AMPPNP was titrated into the reaction and fluorescence anisotropy monitored. Comparison of the equilibrium inhibition constants (K i) gives an indication of the relative strength of nucleotide binding. […] (c) Competition nucleotide displacement assay for Src^32K. 40 μM tail-phosphorylated Src^32K (pY527) or doubly phosphorylated Src^32K pY416 (pY527) was incubated with 40 μM Mant-ADP until equilibrium was established. Unlabelled ADP or AMPPNP was titrated into the reaction and fluorescence anisotropy monitored. Solid lines correspond to Src^32K, dashed lines to Src^32K pY416. AMPPNP binds to Src^32K with 20-fold weaker affinity than ADP. […] (d) Omit map showing clear electron density for ADP and a single magnesium ion in the nucleotide-binding pocket of Src. The magnesium is coordinated by Asn391, Asp404, and the α- and β- phosphates of ADP. The β-phosphate is directly coordinated by the guanidinium side chain of Arg388. […]
Since the concentration of ATP in the cell is typically higher than ADP[33],[34], we performed nucleotide competition assays in order to determine which nucleotide is bound in vivo. We measured the concentrations of ADP or AMPPNP required to displace Mant-ADP. […]
The binding constants for ADP and AMPPNP were determined for Src and Itk proteins by fluorescence anisotropy, using 2′/3′-Mant-labelled nucleotides (Jena Bioscience). […] Unlabelled nucleotide was titrated into the reaction and fluorescence anisotropy monitored. The equilibrium inhibition constant for the unlabelled nucleotide was calculated from the fitted curve.

[4] = target: T4, Itk^32K L351A (Homo sapiens, UniProt Q08881, L351A); test: Fluorescence anisotropy binding of Mant-labelled nucleotides
T4 construct: Human Itk^171–620 (Itk^32K); GST (cleaved yes); made in house; host or cells: baculovirus-infected Sf9 insect cells
T4 sequence (Q08881 171-620 L351A): T3 sequence (Q08881 171-620) with L181A
Text: (§2) Figure 3 An allosteric switch triggers nucleotide exchange. (a) Hydrophobic stack conservation in Src family kinases. The table illustrates the amino acid identity at each of the three positions in the hydrophobic stack in addition to the invariant tryptophan (Trp260 in Src) for all Src family kinase members. The positions are presented according to their N- to C-terminal order in the primary sequences. Where it was not possible to unambiguously determine the identity of the amino acid contributed by the SH2-kinase variable linker (V3), the residue is denoted by a question mark. (b) Small angle X-ray scattering of Itk^32K L351A (black). The scattering curve for wild type Itk^32K (cyan) is overlaid for comparison. […] (c) Rigid body modelling of Itk^32K L351A and fit to ab initio molecular envelope. Displacement of both the SH3 and SH2 domains is required for a good fit to the experimental scattering curve. (d) Determination of the binding constants of Itk^32K L351A for nucleotides by fluorescence anisotropy. […] (e) Determination of the thermal stabilities and relative binding affinities of non-phosphorylated Src^32KΔC L255A for nucleotides by differential scanning fluorimetry. […] TEXT PRINTED IN THE PICTURE: (d) Mant-ADP: Itk^32K L351A (non-phos) Kd (μM): 21.0 ± 2.1 | (d) Mant-ATP: Itk^32K L351A (non-phos) Kd (μM): 31.7 ± 2.7 | (e) ADP: Src^32KΔC L255A (non-phos) [nuc]1/2 (μM): 310 ± 20; Src^32KΔC L255A (non-phos) Tm^max (°C): 52.9; Src^32KΔC L255A (non-phos) ΔTm^max (°C): + 6.8 | (e) ATP: Src^32KΔC L255A (non-phos) [nuc]1/2 (μM): 100 ± 10; Src^32KΔC L255A (non-phos) Tm^max (°C): 54.2; Src^32KΔC L255A (non-phos) ΔTm^max (°C): + 8.1 | (e) apo: Src^32KΔC L255A (non-phos) Tm^max (°C): 46.1
To establish whether hydrophobic stack disassembly triggers a switch in nucleotide binding of the kinase domain, we measured the binding of both unphosphorylated and activation loop phosphorylated (pY511) Itk^32K L351A to ADP and ATP.
as §1

[5] = target: T5, Src^32KΔC L255A (Mus musculus, UniProt P05480, L257A); test: Differential scanning fluorimetry (thermal stability vs nucleotide concentration); format: binding
T5 construct: mouse Src^85-523 (Src^32KΔC); GST (cleaved yes); made in house; host or cells: baculovirus-infected Sf9 insect cells
Text: as §2
Due to limiting protein concentrations, we were unable to obtain a binding curve by fluorescence anisotropy, so we instead used thermal stability measurements to investigate its nucleotide-binding properties. Determination of accurate binding constants from thermal stability measurements requires knowledge of the enthalpy of unfolding. However, for a given protein, the enthalpy of unfolding is independent of the ligand being tested, so comparison of the concentrations of nucleotide required for half maximal stabilisation is valid.
Thermal stabilities as a function of nucleotide concentration were measured by differential scanning fluorimetry (DSF). Samples contained 0.1 mg/ml protein in 50 mM Tris pH 7.5, 150 mM NaCl, 1 mM TCEP, and 5 mM MgCl2 with ADP, ATP, or AMPPNP concentrations ranging from 0–16 mM. Samples were measured in triplicate using a BioRad iQ™5 Multicolor Real-Time PCR Detection System. For detection of phosphorylated protein, samples were diluted and 1 ng and 15 ng were loaded to SDS-PAGE for Src and Itk proteins, respectively. Phosphorylation was measured by immunoblot.

[6] = Itk^32K L351A non-phosphorylated, read-out: Kd
[7] = Src^32KΔC L255A non-phosphorylated, DSF

fold difference in affinity, ADP tighter than AMPPNP [1]: approximately 6 fold
Ki [2]: 690 ± 140 µM
Ki ([3]; 40 μM Itk^32K, 40 μM Mant-ADP, read-out: Ki (equilibrium inhibition constant)): 7900 µM
fold difference in Ki, AMPPNP weaker than ADP ([3]; Itk^32K, displacement of Mant-ADP): ~41 fold
Molecule: Nc1ncnc2c1ncn2[C@@H]1O[C@H](COP(=O)(O)OP(=O)(O)NP(=O)(O)O)[C@@H](O)[C@H]1O [AMPPNP]

Kd [4, 6]: 31.7 ± 2.7 µM
Molecule: Mant-ATP

Kd [4, 6]: 21 ± 2.1 µM
Molecule: Mant-ADP

additional thermal stability conferred by ATP over ADP ([5]; Src^32KΔC L255A non-phosphorylated): 1.3 °C
Tm^max [5, 7]: 54.2 °C
[nuc]1/2 (nucleotide concentration for half maximal stabilisation) [5, 7]: 100 ± 10 µM
Kd ([4]; activation loop-phosphorylated (pTyr511) Itk^32K L351A, read-out: Kd (binding constant)): 37 µM
Molecule: Nc1ncnc2c1ncn2[C@@H]1O[C@H](COP(=O)(O)OP(=O)(O)OP(=O)(O)O)[C@@H](O)[C@H]1O [ATP]
relative binding of ATP versus ADP ([5]; Src^32KΔC L255A, from half maximal stabilisation concentrations): approximately three times better than ADP
